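Dose response: 5 concentrations. Exposure: 48 h. Format: 96-well plates. Endpoint: linear interpolation; highest concentration if not reached. The concentration for 50% growth inhibition is given as GI50. TGI is the concentration that stops growth completely.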

The record followed here is PubChem BioAssay (NCI).

Test systems include NCI/ADR-RES ovarian; HOP-62 NSCLC; SW-620 colon; LOX IMVI melanoma; MDA-MB-435; SF-539 CNS; UO-31 renal; U251 CNS; HCT-116 colon; EKVX NSCLC; HT29 colon.
What all share (test): growth of human tumour cells (NCI), 48 h

Turning to `CCOC(=O)c1c(CN2CCCC2)n(-c2ccccc2)c2cc(Br)c(OC)cc12`, the TGI was 80.8 µM in the test with NCI/ADR-RES ovarian; 22.5 µM with HOP-62 NSCLC; 73.9 µM in the test on SW-620 colon; 27.5 µM in the test with LOX IMVI melanoma; > 100 µM with MDA-MB-435; 72.6 µM in the test on SF-539 CNS. Also, the TGI in the test with UO-31 renal was found to be 29.8 µM; in the test with U251 CNS it was 39.1 µM; in the test on HCT-116 colon it was 26.5 µM; with EKVX NSCLC, 55.5 µM; in the test on HT29 colon it was 24 µM.

In the case of `Nc1nc(=O)n(CC(O)CO)s1` (stereo unspecified), the TGI in the test on HOP-62 NSCLC, in the test with SW-620 colon, in the test with LOX IMVI melanoma, in the test with SF-539 CNS, with UO-31 renal and with U251 CNS was > 100 µM in each case. Besides, the TGI in the test with HCT-116 colon, in the test on EKVX NSCLC and in the test on HT29 colon was > 100 µM in each case.

As to `CNC(=O)Nc1ccccc1`, the TGI in the test with NCI/ADR-RES ovarian, with HOP-62 NSCLC, in the test on SW-620 colon, in the test on LOX IMVI melanoma, with MDA-MB-435 and in the test on SF-539 CNS was > 100 µM throughout. Also, the TGI in the test with UO-31 renal, in the test with U251 CNS, in the test on HCT-116 colon, in the test on EKVX NSCLC and in the test on HT29 colon was > 100 µM throughout.

For the compound `COc1cc2c(cc1OCCCN1CCN(c3ncnc4ccccc34)CC1)N=CC1CCCN1C2=O` (stereo unspecified), the GI50 with NCI/ADR-RES ovarian was 0.373 µM; in the test on HOP-62 NSCLC it was 0.0282 µM; with SW-620 colon, 0.0198 µM; with MDA-MB-435, 0.0214 µM; with SF-539 CNS, 0.0271 µM; with UO-31 renal, 0.0754 µM. Besides, the results for the GI50 in the test on EKVX NSCLC and in the test on HT29 colon were 0.152 µM and 0.0298 µM, respectively. Further, the TGI amounted to 7.11 µM in the test on NCI/ADR-RES ovarian; 0.278 µM in the test on HOP-62 NSCLC; 0.0556 µM in the test with SW-620 colon; 0.0498 µM in the test with MDA-MB-435; 0.0696 µM in the test with SF-539 CNS; 0.558 µM in the test with UO-31 renal. In the test on EKVX NSCLC, this compound displayed a TGI of 0.677 µM.

Turning to `O=c1/c(=C/c2ccc([N+](=O)[O-])o2)sc2n1[C@@H](c1ccc3c(c1)OCO3)C=C(c1cc(F)c(Cl)cc1Cl)N=2`, the TGI in the test with NCI/ADR-RES ovarian was > 100 µM; in the test with HOP-62 NSCLC, 58.9 µM; with SW-620 colon it was > 100 µM; in the test on LOX IMVI melanoma it was 42.9 µM; in the test on MDA-MB-435, 35.3 µM; with SF-539 CNS, > 100 µM. Also, the TGI in the test with UO-31 renal amounted to 42.2 µM; in the test on U251 CNS, 46.5 µM; with HCT-116 colon, 28 µM; in the test with EKVX NSCLC, 32.7 µM; in the test on HT29 colon it was 46 µM.

As to `N#C[S-].[Ce+3].c1cnc2c(c1)ccc1cccnc12.c1cnc2c(c1)ccc1cccnc12.c1cnc2c(c1)ccc1cccnc12`, the TGI worked out at 35.7 µM in the test with HOP-62 NSCLC; 46.8 µM with SW-620 colon; 10.9 µM with LOX IMVI melanoma; 16 µM in the test on SF-539 CNS; 11.5 µM in the test with UO-31 renal; 12.6 µM in the test on U251 CNS. The figures for the TGI in the test on HCT-116 colon, in the test with EKVX NSCLC and with HT29 colon were 5.5 µM, 17.4 µM and 23.9 µM, respectively.

As to `O=C(NNC(=O)c1nsc2ccccc12)c1ccc(Cl)cc1`, the TGI with HOP-62 NSCLC is 33.7 µM; in the test on SW-620 colon, > 100 µM; in the test with LOX IMVI melanoma, 36.5 µM; in the test on SF-539 CNS, 41.9 µM; in the test with UO-31 renal it was 55.4 µM; in the test on U251 CNS it was 33.7 µM. Also, the results for the TGI in the test on HCT-116 colon, with EKVX NSCLC and in the test with HT29 colon were 39.2 µM, 42.3 µM and 41.8 µM, respectively.

Consider `NC(CC(=O)O)(Cc1ccccc1)C(=O)O` (stereo unspecified), for which the TGI in the test on NCI/ADR-RES ovarian, in the test on HOP-62 NSCLC, in the test with SW-620 colon, in the test with LOX IMVI melanoma, in the test with MDA-MB-435 and in the test with SF-539 CNS was > 100 µM each time. Moreover, the TGI in the test on UO-31 renal, in the test on U251 CNS, in the test on HCT-116 colon, in the test on EKVX NSCLC and in the test with HT29 colon was > 100 µM each time.

Turning to `C[N+](C)(CCO)CCN1c2ccccc2Sc2ccccc21`, the TGI in the test on NCI/ADR-RES ovarian, in the test with HOP-62 NSCLC, in the test with SW-620 colon, with LOX IMVI melanoma, in the test on MDA-MB-435 and in the test with SF-539 CNS was > 10 µM each time. Moreover, the TGI in the test on UO-31 renal, in the test on U251 CNS, in the test with HCT-116 colon, in the test with EKVX NSCLC and with HT29 colon was > 10 µM each time.

As to `Fc1c(F)c(C(F)(F)F)c(F)c(F)c1N/N=C/c1cn(Cc2ccccc2)c2ccccc12`, the TGI in the test with NCI/ADR-RES ovarian is 59.1 µM; with HOP-62 NSCLC, 22.4 µM; in the test on SW-620 colon it was > 100 µM; with LOX IMVI melanoma, 47.3 µM; with MDA-MB-435, 54.5 µM; in the test with SF-539 CNS, 42.1 µM. The TGI with UO-31 renal is 52.9 µM; in the test on U251 CNS, > 100 µM; in the test on HCT-116 colon, 89.5 µM; in the test on EKVX NSCLC, 43 µM; in the test with HT29 colon it was 49.3 µM.

In the case of `COc1ccc(C)cc1Nc1nnc(-c2ccc(N)cc2)s1`, the TGI in the test with NCI/ADR-RES ovarian, in the test on HOP-62 NSCLC, with SW-620 colon, in the test on LOX IMVI melanoma, with MDA-MB-435 and in the test on SF-539 CNS was > 100 µM in each case. In addition, the TGI in the test on UO-31 renal, in the test on HCT-116 colon, with EKVX NSCLC and with HT29 colon was > 100 µM in each case.

For `COc1ccc2c(c1)CC[C@@H]1[C@@H]2CC[C@]2(C)C(=O)/C(=C/c3ccc(O)c(OC)c3)C[C@@H]12`, the TGI in the test with NCI/ADR-RES ovarian, with HOP-62 NSCLC, in the test on SW-620 colon, in the test on LOX IMVI melanoma, in the test on MDA-MB-435 and with UO-31 renal was > 100 µM throughout. Further, the TGI in the test with U251 CNS, in the test with EKVX NSCLC and in the test with HT29 colon was > 100 µM in each case.

Turning to `Cn1c(=O)c2c(nc(NCCNc3nc4c(c(=O)n(C)c(=O)n4C)n3C)n2C)n(C)c1=O`, the TGI in the test with NCI/ADR-RES ovarian, in the test with HOP-62 NSCLC, in the test with SW-620 colon, with LOX IMVI melanoma, in the test with MDA-MB-435 and in the test on UO-31 renal was > 100 µM throughout. In addition, the TGI with U251 CNS, in the test on HCT-116 colon, in the test on EKVX NSCLC and in the test on HT29 colon was > 100 µM each time.

Consider `O=C(COc1ccc(Cl)cc1Cl)N/N=C/C=C/c1ccc([N+](=O)[O-])o1`, for which the TGI in the test on NCI/ADR-RES ovarian was > 100 µM; in the test on HOP-62 NSCLC it was 54.4 µM; with SW-620 colon it was > 100 µM; in the test with LOX IMVI melanoma, 38.9 µM; in the test on MDA-MB-435, > 100 µM; in the test on SF-539 CNS it was > 100 µM. Besides, the TGI in the test with UO-31 renal, in the test with U251 CNS, with EKVX NSCLC and in the test with HT29 colon was > 100 µM throughout.

As to `O=S(O)c1cc(Cl)cc(Cl)c1OCc1ccccc1`, the TGI with HOP-62 NSCLC, in the test with LOX IMVI melanoma, with SF-539 CNS, in the test with UO-31 renal, in the test with U251 CNS and with HCT-116 colon was > 100 µM each time. In addition, the TGI in the test with EKVX NSCLC and in the test with HT29 colon was > 100 µM throughout.

Regarding `COc1ccc(C2=NN(C(=O)c3cccnc3)C(O)(c3cc(F)c(Cl)cc3Cl)C2)cc1OC` (stereo unspecified), the TGI in the test on NCI/ADR-RES ovarian was 49.9 µM; in the test on HOP-62 NSCLC, 47.7 µM; in the test with SW-620 colon it was 69.8 µM; with LOX IMVI melanoma it was 27.2 µM; with MDA-MB-435, 87.4 µM; with SF-539 CNS it was 33.5 µM. For the same compound, the TGI in the test on UO-31 renal was 85 µM; in the test on U251 CNS, 29.1 µM; in the test on HCT-116 colon, 29.2 µM; with EKVX NSCLC it was 73.6 µM; in the test on HT29 colon, 34.9 µM.
